Converted amounts (≈) assume the structure as drawn. The source made the active and inactive calls. The calls are words filed in the database; no cut-off is given here. Where a SMILES comes first, the peptide text is derived from it. The star is where a group is joined. Stearoyl = CCCCCCCCCCCCCCCCCC(=O)*; Myristoyl = CCCCCCCCCCCCCC(=O)*; Decanoyl = CCCCCCCCCC(=O)*
Key:
Priestia megaterium = assay: Binding affinity to Bacillus megaterium pHis1525 DNA at 25 to 50 ug/ml after 30 mins by agarose gel electrophoresis
[1] = Cytotoxicity against human TZM-b1 cells assessed as cell death at 40 ug/ml after 2 hrs by flow cytometry (reference value: 0 to 0.20 %); format: cell-based; settings: tzm-b1, 2 h
Staphylococcus aureus [2] = assay: Antimicrobial activity against Staphylococcus aureus ATCC 12600 assessed as disruption of membrane integrity measured as PI dye influx at 250 ug/ml after 20 mins by fluorescence microscopy; format: functional, organism-based
Candida albicans = assay: Antimicrobial activity against Candida albicans ATCC 14053 after 17 to 20 hrs by serial dilution method; format: functional
[3] = Cytotoxicity against human TZM-b1 cells assessed as cell death at 40 ug/ml after 1 hr by flow cytometry (reference value: 0 to 0.20 %); format: cell-based; settings: tzm-b1, 1 h
Escherichia coli [4] = assay: Antimicrobial activity against Escherichia coli ATCC 25922 assessed as disruption of membrane integrity measured as PI dye influx at 250 ug/ml after 20 mins by fluorescence microscopy; format: functional
[5] = Cytotoxicity in human erythrocytes assessed as hemolysis at 125 ug/ml after 1 hr relative to control; format: cell-based, Erythrocyte; settings: read-out: Activity
Staphylococcus aureus [6] = assay: Antimicrobial activity against Staphylococcus aureus ATCC 12600 after 17 to 20 hrs by serial dilution method; format: functional
[7] = Cytotoxicity against human TZM-b1 cells assessed as cell death after 48 hrs by MTT assay; format: cell-based; settings: tzm-b1, 48 h
Staphylococcus aureus [8] = assay: Antimicrobial activity against Staphylococcus aureus ATCC 12600 assessed as disruption of membrane integrity measured as PI dye influx at 50 ug/ml after 20 mins by fluorescence microscopy; format: functional, organism-based
[9] = Cytotoxicity against human TZM-b1 cells assessed as cell death at 125 ug/ml after 48 hrs by MTT assay; format: cell-based; settings: tzm-b1, 48 h
Escherichia coli [10] = assay: Antimicrobial activity against Escherichia coli ATCC 25922 assessed as disruption of membrane integrity measured as PI dye influx at 50 ug/ml after 20 mins by fluorescence microscopy; format: functional, organism-based
Escherichia coli [11] = assay: Antimicrobial activity against Escherichia coli ATCC 25922 after 17 to 20 hrs by serial dilution method; format: functional
Staphylococcus aureus [12] = assay: Antimicrobial activity against Staphylococcus aureus ATCC 12600 assessed as cell death at 40 ug/ml after 1 hr by flow cytometry; format: functional
[13] = Cytotoxicity against human TZM-b1 cells assessed as survival at 40 ug/ml after 2 hrs by flow cytometry; format: cell-based; settings: read-out: Survival
[14] = Cytotoxicity in human erythrocytes assessed as hemolysis at 250 ug/ml after 1 hr relative to control; format: cell-based, Erythrocyte; settings: read-out: Activity
[15] = Cytotoxicity against human TZM-b1 cells assessed as cell death at 500 ug/ml after 48 hrs by MTT assay; format: cell-based; settings: tzm-b1, 48 h

| Molecule | Activity (Priestia megaterium) | MIC (Candida albicans) | hemolysis at 1 h, 125 ug/ml [5] | MIC (Staphylococcus aureus [6]) | MIC (Escherichia coli [11]) | hemolysis at 1 h, 250 ug/ml [14] | other results |
| --- | --- | --- | --- | --- | --- | --- | --- |
| CCCCCCCCCC(=O)N[C@@H](CCCNC(=N)N)C(=O)N[C@@H](CCCCN)C(=O)N[C@@H](Cc1c[nH]c2ccccc12)C(=O)N[C@@H](Cc1c[nH]c2ccccc12)C(=O)N[C@@H](CCCCN)C(N)=O (Decanoyl-RKWWK-NH2) | Active | 15.6 µg/mL (≈ 16.3 µM) | < 10% | 3.9 µg/mL (≈ 4.08 µM) | 3.9 µg/mL (≈ 4.08 µM) |  | Activity [1]: 0.128%; Activity (Staphylococcus aureus [2]): Active; Activity [3]: 0.072%; CC50 (Escherichia coli [4]; ATCC 25922, 20 min): 115 µg/mL (≈ 120 µM); Activity [7]: Toxic; Activity (Staphylococcus aureus [8]): Active; Activity [9]: Toxic; Activity (Escherichia coli [10]): Active; Activity (Staphylococcus aureus [12]): >95%; viability at 2 h, 40 ug/ml [13]: > 99% |
| CCCCCCCCCC(=O)N[C@@H](CCCNC(=N)N)C(=O)N[C@H](C(=O)N[C@@H](CCCCN)C(=O)N[C@@H](Cc1c[nH]c2ccccc12)C(=O)N[C@@H](Cc1c[nH]c2ccccc12)C(=O)N[C@@H](CCCCN)C(N)=O)[C@@H](C)CC (Decanoyl-RIKWWK-NH2) | Active | > 62.5 µg/mL |  | 3.9 µg/mL (≈ 3.65 µM) | 7.8 µg/mL (≈ 7.29 µM) |  |  |
| CCCCCCCCCC(=O)N[C@@H](CCCCN)C(=O)N[C@@H](Cc1c[nH]c2ccccc12)C(=O)N[C@@H](CCCCN)C(N)=O (Decanoyl-Lys-Trp-Lys-NH2) |  | > 62.5 µg/mL |  | 31.2 µg/mL (≈ 50.8 µM) | > 31.2 µg/mL | < 10% |  |
| CCCCCCCCCCCCCC(=O)N[C@@H](CCCCN)C(=O)N[C@@H](Cc1c[nH]c2ccccc12)C(=O)N[C@@H](Cc1c[nH]c2ccccc12)C(=O)N[C@@H](CCCCN)C(N)=O (Myristoyl-KWWK-NH2) |  | 15.6 µg/mL (≈ 18.2 µM) | 56% | 3.9 µg/mL (≈ 4.56 µM) | 7.8 µg/mL (≈ 9.11 µM) |  |  |
| CCCCCCCCCC(=O)N[C@@H](CCCNC(=N)N)C(=O)N[C@H](C(=O)N[C@@H](CCCCN)C(=O)N[C@@H](Cc1c[nH]c2ccccc12)C(=O)N[C@@H](CCCCN)C(N)=O)[C@@H](C)CC (Decanoyl-RIKWK-NH2) | inactive | > 62.5 µg/mL |  | 7.8 µg/mL (≈ 8.83 µM) | 15.6 µg/mL (≈ 17.7 µM) | < 10% | Activity [1]: 0.083%; Activity (Staphylococcus aureus [2]): Active; Activity [3]: 0.074%; Activity (Escherichia coli [4]): Active; Activity (Staphylococcus aureus [8]): Active; Activity (Escherichia coli [10]): Active; Activity (Staphylococcus aureus [12]): >95%; viability at 2 h, 40 ug/ml [13]: > 99% |
| H-RKWWK-NH2 |  |  |  | 62.5 µg/mL | > 62.5 µg/mL |  | Activity [15]: Non-toxic |
| CCCCCCCCCCCCCC(=O)N[C@@H](CCCCN)C(=O)N[C@@H](Cc1c[nH]c2ccccc12)C(=O)N[C@@H](CCCCN)C(N)=O (Myristoyl-Lys-Trp-Lys-NH2) |  | > 62.5 µg/mL | 11% | 7.8 µg/mL (≈ 11.6 µM) | 7.8 µg/mL (≈ 11.6 µM) | 19% |  |
| CCCCCCCCCCCCCC(=O)N[C@@H](CCCNC(=N)N)C(=O)N[C@H](C(=O)N[C@@H](CCCCN)C(=O)N[C@@H](Cc1c[nH]c2ccccc12)C(=O)N[C@@H](CCCCN)C(N)=O)[C@@H](C)CC (Myristoyl-RIKWK-NH2) |  | > 62.5 µg/mL |  | 15.6 µg/mL (≈ 16.6 µM) | 15.6 µg/mL (≈ 16.6 µM) | 20% |  |
| CCCCCCCCCC(=O)N[C@@H](CCCCN)C(=O)N[C@@H](Cc1c[nH]c2ccccc12)C(=O)N[C@@H](CCCCN)C(=O)N[C@@H](Cc1c[nH]c2ccccc12)C(N)=O (Decanoyl-KWKW-NH2) | Active | 31.2 µg/mL (≈ 39 µM) |  | 7.8 µg/mL (≈ 9.75 µM) | 7.8 µg/mL (≈ 9.75 µM) |  |  |
| CCCCCCCCCCCCCC(=O)N[C@@H](CCCCN)C(=O)N[C@@H](Cc1c[nH]c2ccccc12)C(=O)N[C@@H](CCCCN)C(=O)N[C@@H](Cc1c[nH]c2ccccc12)C(N)=O (Myristoyl-KWKW-NH2) |  | > 62.5 µg/mL | 17% | 3.9 µg/mL (≈ 4.56 µM) | 7.8 µg/mL (≈ 9.11 µM) |  |  |
| CCCCCCCCCCCCCCCCCC(=O)N[C@@H](CCCCN)C(=O)N[C@H](C(=O)N[C@@H](CCCCN)C(=O)N[C@@H](CCCNC(=N)N)C(=O)N[C@@H](Cc1c[nH]c2ccccc12)C(=O)N[C@@H](Cc1c[nH]c2ccccc12)C(=O)N[C@@H](CCCNC(=N)N)C(N)=O)[C@@H](C)CC (Stearoyl-KIKRWWR-NH2) |  | > 62.5 µg/mL |  | > 31.2 µg/mL | > 31.2 µg/mL |  |  |
| CCCCCCCCCCCCCCCCCC(=O)N[C@@H](CCCCN)C(=O)N[C@H](C(=O)N[C@@H](CCCNC(=N)N)C(=O)N[C@@H](Cc1c[nH]c2ccccc12)C(=O)N[C@@H](Cc1c[nH]c2ccccc12)C(=O)N[C@@H](CCCNC(=N)N)C(N)=O)[C@@H](C)CC (Stearoyl-KIRWWR-NH2) |  | > 62.5 µg/mL |  | > 31.2 µg/mL | > 31.2 µg/mL |  |  |

From ChEMBL document CHEMBL3286360, “Tuning the antimicrobial pharmacophore to enable discovery of short lipopeptides with multiple modes of action” (Eur J Med Chem, 2014)
